Tests used:
[1] = test system: human prostate carcinoma DU145 xenografts; assay: DU145 xenografts in nude mice; format: in vivo; settings: daily 440 mg/kg
Protocol: Nude mice bearing WM9 or DU145 xenografts were treated with IFN-alpha (500,000 U, s.c., daily), sodium stibogluconate (12 mg Sb, s.c., daily) or both. […] The dosage of sodium stibogluconate corresponds to approximately 440 mg Sb/kg body weight (average mouse body weight 27 g), substantially higher than the standard therapeutic dose of 20 mg Sb/kg and the high dose (143 mg Sb/kg) that was clinically used by accident without serious toxicity. This dose of sodium stibogluconate was based on a previous observation in a pilot study that mice could tolerate daily dose of 20 mg Sb (approximately 700-800 mg Sb/kg). […]
For each of the cell lines, each of 16 mice received subcutaneous injection at the chest area of 3×10^6 cells/site (WM9) or 2×10^6 cells/site (DU145), two sites/mouse, on day 0. […] Tumor size was measured with a caliper to determine the two perpendicular diameters of each tumor. Tumor volume was calculated using the method of the NCI (length×width 2 in millimeters/2=volume in cubic millimeters).
Athymic nude mice (nu/nu, NCR), 4 weeks old (Taconic), were inoculated (s.c.) in the flanks with DU145 cells (3×10^6 cells/site) on day 0. […] Tumor volume was measured and calculated using the formula for a prolate spheroid (V=4/3 7 a^2b) (Lindner, et al. 1997). […]

NB4 cells = assay: NB4 growth, cell cycle and Annexin V; format: cell-based, human
Protocol: The NB4 cell line (Lanotte et al., Blood 77, 1080 (1991)) was a gift from Dr. Dan Lindner of the Cleveland Clinic Foundation. […] and U937 cell lines were purchased from American Type Culture Collection (Rockville, Md.). These human […] cell lines were maintained in RPMI 1640 medium supplemented with 10% fetal calf serum (FCS). For cell proliferation assays, cells were cultured at 37° C. in 10% FCS medium containing various amounts of sodium stibogluconate for 6 days. The cell numbers in the cultures were determined by an MTT assay as described previously in Mosmann, J. Immunol. Methods 65, 55 (1983).
The cell cycle was analyzed by flow cytometry after 3 days of culture of NB4 cells in the absence or presence of sodium stibogluconate (250 μg/ml) or ATRA (1 μM). Briefly, the cells were fixed in cold ethanol and incubated for 30 minutes at 4° C. in the dark with a solution of […] propidium iodide, 1 mg/ml RNase and 0.1% NP-40. Analysis was performed immediately after staining using the CELLFIT program (Becton Dickinson, Mountain View, Calif.).
Annexin V staining of exposed membrane phospholipid phosphatidylserine (PS) was done using the Annexin V assay kit (Pharmingen, San Diego, Calif.). Briefly, NB4 cells were cultured in the 10% FCS RPMI 1640 medium in the absence or presence of sodium stibogluconate (250 μg/ml) or ATRA (1 μM) for 3 days. Cells were then washed in PBS twice and stained in binding buffer (10 mM Hepes, pH 7.4; 140 mM NaCl; 2.5 mM CaCl2) containing Annexin V-FITC and propidium iodide for 15 min. The reaction was stopped by adding 10 volumes of binding buffer and analyzed by FACS (Becton Dickinson Facsvantage).

[2] = test system: Jak2/Stat5 tyrosine phosphorylation in Baf3 cells; assay: cellular protein tyrosine phosphorylation in Baf3 cells, Western blotting; format: cell-based, murine
Protocol: For induction of cellular protein phosphorylation by sodium stibogluconate or pervanadate, Baf3 cells were incubated in 0.1% FCS-RPMI 1640 medium at 37° C. for 16 hours. The cells were then washed twice in RPMI 1640 medium and incubated with sodium stibogluconate or pervanandate (0.1 mM) for various times prior to termination by lysing cells in cold lysis buffer (50 mM Tris, pH 7.4; 150 mM NaCl; 0.2 mM Na3VO4; 20 mm NaF; 1% Nonidet P-40; 2 mM PMSF; 20 μg/ml of Aprotinin and 1 mM of sodium molybdic acid). To determine the effect of sodium stibogluconate or potassium antimonyl tartrate on IL-3-induced Jak/Stat phosphorylation, Baf3 cells were deprived of the growth factor for 16 hours in 0.1% FCS RPMI 1640 medium and then incubated with or without sodium stibogluconate or potassium antimonyl tartrate for 10 minutes. IL-3 was next added to the cell suspension and incubated for various times. The Cells were then harvested and lysed in cold lysis buffer at 4° C. for 45 minutes. Total cell lysates (TCL) were separated in SDS-PAGE gels, blotted onto nitrocellulose membrane (Schleicher & Schuell), probed with specific antibodies and detected using an enhanced chemiluminescence kit (ECL, Amersham, Arlington Heights, Ill.).

Baf3 cells = assay: Baf3 cell proliferation assay; format: cell-based, murine
Protocol: The murine hematopoietic cell line Baf3 was maintained in RPMI 1640 medium supplemented with 10% fetal calf serum (FCS) and murine IL-3 (20 units/ml) as described previously in Damen et al., J. Biol. Chem. 270, 23402 (1995). Human myeloid cell line TF-1 was maintained in RPMI 1640 supplemented with 10% FCS and 40 ng/ml of recombinant human GM-CSF as described previously in Thomassen et al., Clin. Immunol. 95, 85 (2000). For cell proliferation assays, cells were washed in 10% FCS medium twice, resuspended in 10% FCS medium, incubated at 37° C. for 16 hours, and then cultured at 37° C. in 10% FCS medium containing various amounts of cytokines, sodium stibogluconate, or potassium antimonyl tartrate for 3-6 days as indicated. The cell numbers in proliferation assays were determined by an MTT assay or by microscopic cell counting as indicated.

O.O.O.O.O.O.O.O.O.O=C([O-])[C@@H]1[O][Sb]2([O-])([O][Sb]34([OH])[O][C@H]([C@H](O)CO)[C@H]([O]3)[C@H](C(=O)[O-])[O]4)[O][C@H]([C@H](O)CO)[C@@H]1[O]2.[Na+].[Na+].[Na+] [sodium stibogluconate]
toxicity in DU145 tumor mice [1]: no obvious toxicity | Annexin V staining of NB4 cells (NB4 cells; 250 μg/ml, 6 days): stained positive by Annexin V | proliferation of NB4 cells (NB4 cells; 12.5-400 μg/ml): markedly inhibited | cell cycle of NB4 cells (NB4 cells; sodium stibogluconate 250 μg/ml or ATRA 1 μM, 3 days): significant increase of cells at S phase | induction of cellular protein tyrosine phosphorylation ([2]; Baf3 deprived of IL-3, compared with pervanadate 0.1 mM): modest and transient | phosphotyrosine levels of Jak2 and Stat5 versus cells without drug ([2]; IL-3 stimulated, densitometry): about twice | Jak2/Stat5 tyrosine phosphorylation by drug alone ([2]; no IL-3, 16 hours at 37 °C): failed to induce Jak2/Stat5 tyrosine phosphorylation | effect on IL-3-induced Baf3 growth (Baf3 cells; 1,000 μg/ml): suppressed IL-3-induced Baf3 growth | proliferation and viability in the absence of IL-3 (Baf3 cells; day 3 culture): failed to support cell proliferation or maintain cell viability

Source: patent publication US20070202079A1, “Therapeutic compositions and methods useful in modulating protein tyrosine phosphatases” (priority 2006, published 2007)
